Measured values as given in the supplement of paper PMC10307832.

Key:
Assay in all cases: relative viability (nuclei count vs DMSO), 5 days (fraction); higher = more cells survive
LK-2 = test system: LK-2
Outline: (§1)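 Relative viability was taken as the ratio of nuclei in treated wells to nuclei in vehicle wells. Lung cancer cell lines in 1536-well plates received compounds by pin tool one day after seeding, either one drug alone or a fixed anchor-drug dose plus five library-drug doses (not always all listed) in √10 steps. Nuclei were counted on 4× images after 5 days of treatment, and values are medians of duplicate plates.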

NCI-H2405 = test system: NCI-H2405
Outline: as §1

HOP-62 = test system: HOP-62
Outline: as §1

SK-MES-1 = test system: SK-MES-1
Outline: as §1

HCC-78 = test system: HCC-78
Outline: as §1

BEN = test system: BEN
Outline: as §1

NCI-H1993 = test system: NCI-H1993
Outline: as §1

HCC-366 = test system: HCC-366
Outline: as §1

NCI-H460 = test system: NCI-H460
Outline: as §1

COR-L 105 = test system: COR-L 105
Outline: as §1

EMC-BAC-2 = test system: EMC-BAC-2
Outline: as §1

NCI-H661 = test system: NCI-H661
Outline: as §1

NCI-H1563 = test system: NCI-H1563
Outline: as §1

NCI-H647 = test system: NCI-H647
Outline: as §1

NCI-H1734 = test system: NCI-H1734
Outline: as §1

PC-14 = test system: PC-14
Outline: as §1

A-427 = test system: A-427
Outline: as §1

201T = test system: 201T
Outline: as §1

HCC-15 = test system: HCC-15
Outline: as §1

NCI-H1915 = test system: NCI-H1915
Outline: as §1

COR-L23 = test system: COR-L23
Outline: as §1

EKVX = test system: EKVX
Outline: as §1

Cc1csc(=NC2CCCCC2)n1/N=C/c1ccc(O)c(O)c1O [MIM1] + COc1cc2c(Oc3ccc(NC(=O)C4(C(=O)Nc5ccc(F)cc5)CC4)cc3F)ccnc2cc1OCCCN1CCOCC1 [Foretinib] (partner 0.25 µM)
relative viability (LK-2; first compound 0.2 µM): 1.46
relative viability (LK-2; first compound 2 µM): 1.33
relative viability (LK-2; first compound 6.325 µM): 1.17
relative viability (LK-2; first compound 20 µM): 0.218
relative viability (NCI-H2405; first compound 0.2 µM): 1.05
relative viability (NCI-H2405; first compound 0.6325 µM): 1.05
relative viability (NCI-H2405; first compound 2 µM): 1
relative viability (NCI-H2405; first compound 6.325 µM): 0.741
relative viability (NCI-H2405; first compound 20 µM): 0.866
relative viability (HOP-62; first compound 0.2 µM): 1.14
relative viability (HOP-62; first compound 0.6325 µM): 1.1
relative viability (HOP-62; first compound 2 µM): 0.986
relative viability (HOP-62; first compound 6.325 µM): 0.94
relative viability (HOP-62; first compound 20 µM): 0.278
relative viability (SK-MES-1; first compound 0.2 µM): 0.897
relative viability (SK-MES-1; first compound 0.6325 µM): 0.891
relative viability (SK-MES-1; first compound 2 µM): 0.861
relative viability (SK-MES-1; first compound 6.325 µM): 0.805
relative viability (SK-MES-1; first compound 20 µM): 0.758
relative viability (HCC-78; first compound 0.2 µM): 0.558
relative viability (HCC-78; first compound 0.6325 µM): 0.563
relative viability (HCC-78; first compound 2 µM): 0.539
relative viability (HCC-78; first compound 6.325 µM): 0.553
relative viability (HCC-78; first compound 20 µM): 0.911
relative viability (BEN; first compound 0.2 µM): 0.705
relative viability (BEN; first compound 0.6325 µM): 0.531
relative viability (BEN; first compound 2 µM): 0.719
relative viability (BEN; first compound 6.325 µM): 0.551
relative viability (BEN; first compound 20 µM): 0.294
relative viability (NCI-H1993; first compound 0.2 µM): 0.7
relative viability (NCI-H1993; first compound 0.6325 µM): 0.715
relative viability (NCI-H1993; first compound 2 µM): 0.671
relative viability (NCI-H1993; first compound 6.325 µM): 0.659
relative viability (NCI-H1993; first compound 20 µM): 0.64
relative viability (HCC-366; first compound 0.2 µM): 0.927
relative viability (HCC-366; first compound 2 µM): 0.993
relative viability (HCC-366; first compound 6.325 µM): 0.782
relative viability (HCC-366; first compound 20 µM): 0.077
relative viability (NCI-H460; first compound 0.2 µM): 0.954
relative viability (NCI-H460; first compound 0.6325 µM): 0.987
relative viability (NCI-H460; first compound 2 µM): 0.862
relative viability (NCI-H460; first compound 6.325 µM): 0.493
relative viability (NCI-H460; first compound 20 µM): 0.0555
relative viability (COR-L 105; first compound 0.2 µM): 1.02
relative viability (COR-L 105; first compound 0.6325 µM): 0.821
relative viability (COR-L 105; first compound 2 µM): 1.19
relative viability (COR-L 105; first compound 6.325 µM): 1.08
relative viability (COR-L 105; first compound 20 µM): 0.774
relative viability (EMC-BAC-2; first compound 0.2 µM): 0.698
relative viability (EMC-BAC-2; first compound 0.6325 µM): 1
relative viability (EMC-BAC-2; first compound 2 µM): 0.963
relative viability (EMC-BAC-2; first compound 6.325 µM): 0.697
relative viability (EMC-BAC-2; first compound 20 µM): 0.449
relative viability (NCI-H661; first compound 0.2 µM): 0.933
relative viability (NCI-H661; first compound 0.6325 µM): 1
relative viability (NCI-H661; first compound 2 µM): 0.939
relative viability (NCI-H661; first compound 6.325 µM): 0.75
relative viability (NCI-H661; first compound 20 µM): 0.355
relative viability (NCI-H1563; first compound 0.2 µM): 0.971
relative viability (NCI-H1563; first compound 0.6325 µM): 0.975
relative viability (NCI-H1563; first compound 2 µM): 0.866
relative viability (NCI-H1563; first compound 6.325 µM): 0.819
relative viability (NCI-H1563; first compound 20 µM): 0.772
relative viability (NCI-H647; first compound 0.2 µM): 1.16
relative viability (NCI-H647; first compound 0.6325 µM): 1.12
relative viability (NCI-H647; first compound 6.325 µM): 1
relative viability (NCI-H647; first compound 20 µM): 0.703
relative viability (NCI-H1734; first compound 0.2 µM): 0.884
relative viability (NCI-H1734; first compound 0.6325 µM): 0.886
relative viability (NCI-H1734; first compound 2 µM): 0.772
relative viability (NCI-H1734; first compound 6.325 µM): 0.478
relative viability (NCI-H1734; first compound 20 µM): 0.255
relative viability (PC-14; first compound 0.2 µM): 0.931
relative viability (PC-14; first compound 0.6325 µM): 0.942
relative viability (PC-14; first compound 2 µM): 0.908
relative viability (PC-14; first compound 6.325 µM): 0.784
relative viability (PC-14; first compound 20 µM): 0.629
relative viability (A-427; first compound 0.2 µM): 1.15
relative viability (A-427; first compound 2 µM): 1.05
relative viability (A-427; first compound 6.325 µM): 1.07
relative viability (A-427; first compound 20 µM): 0.25
relative viability (201T; first compound 0.2 µM): 1.11
relative viability (201T; first compound 2 µM): 0.993
relative viability (201T; first compound 6.325 µM): 0.709
relative viability (201T; first compound 20 µM): 0.483
relative viability (HCC-15; first compound 0.2 µM): 1.09
relative viability (HCC-15; first compound 2 µM): 1.06
relative viability (HCC-15; first compound 6.325 µM): 0.764
relative viability (HCC-15; first compound 20 µM): 0.157
relative viability (NCI-H1915; first compound 0.2 µM): 1.13
relative viability (NCI-H1915; first compound 0.6325 µM): 1.07
relative viability (NCI-H1915; first compound 2 µM): 1.07
relative viability (NCI-H1915; first compound 6.325 µM): 0.83
relative viability (NCI-H1915; first compound 20 µM): 0.251
relative viability (COR-L23; first compound 0.2 µM): 0.992
relative viability (COR-L23; first compound 0.6325 µM): 0.935
relative viability (COR-L23; first compound 2 µM): 0.839
relative viability (COR-L23; first compound 6.325 µM): 0.802
relative viability (COR-L23; first compound 20 µM): 0.547
relative viability (EKVX; first compound 0.2 µM): 0.766
relative viability (EKVX; first compound 0.6325 µM): 0.234
relative viability (EKVX; first compound 2 µM): 0.75
relative viability (EKVX; first compound 6.325 µM): 0.379
relative viability (EKVX; first compound 20 µM): 0.422
